Measured values reported in patent US20060111305A1, “Metabolites of certain [1,4]diazepino[6,7,1-ij]quinoline derivatives and methods of preparation and use thereof” (Wyeth, priority 2004, published 2006).
Several values for one entry are separate records, joined by “and”; a condition that tells them apart may be missing. Equal values may be shown once.

Experiments:
[1] = Concentrations of DCDQ and DCDQ carbamoyl glucuronide (M6) in human plasma, LC/SRM (Table 34); format: in vivo, healthy human subjects; conditions: plasma
Procedure: (§1) Drug administration and specimen collection were performed in a randomized, double-blinded, placebo-controlled, ascending single dose study of the safety, tolerability, pharmacokinetics, and pharmacodynamics of DCDQ administered orally to healthy subjects and subjects with schizophrenia and schizoaffective disorder. The specimens were stored at approximately −70° C. until analysis for metabolite profiles and for ratios of carbamoyl glucuronide (M6) to DCDQ.
Plasma samples from fasted subjects 25, 28 and 30 in the 50 mg single dose group, fasted subjects 50, 51, 54 in the 200 mg single dose group, fasted subjects 74, 76, 79 in the 300 mg single dose group, fed subjects 83, 84, 86 in the 300 mg single dose group and fasted subjects 92, 94, 96 in the 500 mg single dose group were analyzed for DCDQ carbamoyl glucuronide (M6) concentrations. The internal standard d8-DCDQ (25 μL of 200 ng/mL methanol solution) was added to 100 μL of the plasma samples, followed by the addition of 300 μL of acetonitrile. The samples were mixed and centrifuged at 14000 rpm in an Eppendorf 5415C centrifuge (Brinkman Instruments Inc., Westbury, N.Y.) for 10 minutes. The supernatant of each sample was transferred to a clean tube and evaporated to dryness under a stream of nitrogen in a TurboVap LV evaporator (Caliper Life Sciences, Hopkinton, Mass.). The residue was reconstituted with 50 μL of methanol followed by the addition of 150 μL of water. The sample was mixed and centrifuged as described above. The supernatant was analyzed by LC/MS/MS analysis. Samples for standard curves were prepared with control plasma spiked with synthetic M6. The concentrations of M6 used for the standard curve ranged from 0 to 2500 ng/mL plasma.
(§2) LC/MS System 3 was used for semi-quantitative analysis of metabolite M6 (DCDQ carbamoyl glucuronide) in plasma and urine samples. The HPLC equipment for this LC/MS System consisted of a Thermo Surveyor HPLC (Thermo Electron Corp., San Jose, Calif.), including a Surveyor MS pump and autosampler. Separations were accomplished on a 5 micron Phenomenex Luna C18(2) column, 150×2 mm (Phenomenex, Torrance, Calif.). The autosampler and column temperatures were set at 5° C. and 40° C., respectively. The HPLC mobile phase consisted of 10 mM ammonium acetate (A) and methanol (B), and was delivered at 0.2 mL/min. The linear mobile phase gradient (HPLC Gradient 2) is shown below. During LC/MS sample analysis, up to 3 min of the initial flow was diverted away from the mass spectrometer prior to evaluation of metabolites.
(§3) The mass spectrometer used for semi-quantitative anslysis with LC/MS System 3 was a Finnigan TSQ Quantum triple quadrupole mass spectrometer (Thermo Electron Corp.). The mass spectrometer was equipped with an electrospray interface and operated in the positive ionization mode. Settings for this mass spectrometer are listed below.
(§4) LC/MS/MS analysis in the selected reaction monitoring (SRM) mode (LC/SRM) was conducted for DCDQ and M6 using the following settings.
The computer program Microsoft Excel® 97 was used to calculate means and standard deviations and to perform the student t-test. Xcalibur (version 1.3) and MassLynx software (version 4.0) were used for collection and analysis of LC/MS data. Peak area ratios of M6 to the internal standard were used for quantitation of M6 in plasma samples.

[2] = M6 to DCDQ ratios in human urine, LC/MS (Table 35); format: in vivo, healthy human subjects
Procedure: as §1
The 0-4, 4-12 and 12-24 hr urine samples from the same subjects in the single dose groups were analyzed for ratios of M6 to DCDQ. The internal standard was not used in the analysis of urine samples. The samples were diluted for 20-fold with a control urine sample and directly analyzed by LC/MS. To estimate M6-to-DCDQ ratios in human urine, control urine samples were spiked with 200 ng/mL of DCDQ and 1000, 5000, or 10000 ng/mL of DCDQ carbamoyl glucuronide, and were analyzed by LC/MS.
as §2, §3, §4

[3] = 300 mg (fasted), 24 hr, individual subjects
[4] = 300 mg (fed), 6 hr, individual subjects
[5] = 300 mg (fed), 12 hr, individual subjects

## O=C(O)[C@H]1O[C@@H](OC(=O)N2CCN3C[C@@H]4CCC[C@@H]4c4cccc(c43)C2)[C@H](O)[C@@H](O)[C@@H]1O [Metabolite M6, carbamoyl glucuronide of DCDQ]
[1]; 300 mg (fasted), 12 hr, individual subjects
  M6 to DCDQ Ratios: 28.7 and 23.4 and 18.5
[1]; 300 mg (fasted), 24 hr, Mean ± S.D.
  M6 to DCDQ Ratios: 24.1 ± 22.7
[1]; [3]
  M6 concentration in plasma: 48.5 ng/mL and 12.0 ng/mL and 26.3 ng/mL
  M6 to DCDQ Ratios: 49.9 and 6.98 and 15.5
[1]; 300 mg (fed), 6 hr, Mean ± S.D.
  M6 to DCDQ Ratios: 76.6 ± 54.9
[1]; [4]
  M6 concentration in plasma: 860 ng/mL and 696 ng/mL and 182 ng/mL
  M6 to DCDQ Ratios: 45.3 and 44.6 and 140
[1]; [5]
  M6 concentration in plasma: 279 ng/mL and 38.1 ng/mL and 540 ng/mL
  M6 to DCDQ Ratios: 25.6 and 4.73
[1]; 300 mg (fed), 24 hr, individual subjects
  M6 concentration in plasma: 24.6 ng/mL and 6.40 ng/mL and 146 ng/mL
[1]; 500 mg (fasted), 6 hr, individual subjects
  M6 concentration in plasma: 1324 ng/mL and 508 ng/mL and 1221 ng/mL
[1]; 500 mg (fasted), 12 hr, individual subjects
  M6 concentration in plasma: 181 ng/mL and 206 ng/mL
[1]; 500 mg (fasted), 24 hr, individual subjects
  M6 concentration in plasma: 58.3 ng/mL and 13.5 ng/mL and 77.0 ng/mL
[2]; 50 mg (fasted), 0-4 hr, Mean ± S.D.
  M6 to DCDQ Ratios: 841 ± 798
[2]; 50 mg (fasted), 0-4 hr, individual subjects
  M6 to DCDQ Ratios: 214 and 571 and 1739
[2]; 50 mg (fasted), 4-12 hr, Mean ± S.D.
  M6 to DCDQ Ratios: 419 ± 174
[2]; 50 mg (fasted), 4-12 hr, individual subjects
  M6 to DCDQ Ratios: 389 and 606 and 261
[2]; 50 mg (fasted), 12-24 hr, Mean
  M6 to DCDQ Ratios: 155 ± 98.1
[2]; 50 mg (fasted), 12-24 hr, individual subjects
  M6 to DCDQ Ratios: 143 and 259 and 63.9
[2]; 200 mg (fasted), 0-4 hr, Mean ± S.D.
  M6 to DCDQ Ratios: 151 ± 32.9
[2]; 200 mg (fasted), 0-4 hr, individual subjects
  M6 to DCDQ Ratios: 169 and 171 and 113
[2]; 200 mg (fasted), 4-12 hr, Mean ± S.D.
  M6 to DCDQ Ratios: 284 ± 98.7
[2]; 200 mg (fasted), 4-12 hr, individual subjects
  M6 to DCDQ Ratios: 397 and 240 and 215
[2]; 200 mg (fasted), 12-24 hr, Mean ± S.D.
  M6 to DCDQ Ratios: 115 ± 90.4
[2]; 200 mg (fasted), 12-24 hr, individual subjects
  M6 to DCDQ Ratios: 216 and 85.9 and 42.3
[2]; 300 mg (fasted), 0-4 hr, Mean ± S.D.
  M6 to DCDQ Ratios: 820 ± 365
[2]; 300 mg (fasted), 0-4 hr, individual subjects
  M6 to DCDQ Ratios: 1167 and 852 and 440
[2]; 300 mg (fasted), 4-12 hr, Mean ± S.D.
  M6 to DCDQ Ratios: 732 ± 702
[2]; 300 mg (fasted), 4-12 hr, individual subjects
  M6 to DCDQ Ratios: 329 and 1543 and 324
[2]; 300 mg (fasted), 12-24 hr, Mean ± S.D.
  M6 to DCDQ Ratios: 241 ± 212
[2]; 300 mg (fasted), 12-24 hr, individual subjects
  M6 to DCDQ Ratios: 485 and 127 and 110
[2]; 300 mg (fed), 0-4 hr, Mean ± S.D.
  M6 to DCDQ Ratios: 1018 ± 520
[2]; 300 mg (fed), 0-4 hr, individual subjects
  M6 to DCDQ Ratios: 1162 and 441 and 1451
[2]; 300 mg (fed), 4-12 hr, Mean ± S.D.
  M6 to DCDQ Ratios: 761 ± 508
[2]; 300 mg (fed), 4-12 hr, individual subjects
  M6 to DCDQ Ratios: 375 and 571 and 1337
[2]; 300 mg (fed), 12-24 hr, Mean ± S.D.
  M6 to DCDQ Ratios: 142 ± 46.0
[2]; 300 mg (fed), 12-24 hr, individual subjects
  M6 to DCDQ Ratios: 148 and 92.6 and 184
[2]; 500 mg (fasted), 0-4 hr, Mean ± S.D.
  M6 to DCDQ Ratios: 97.6 ± 55.2
[2]; 500 mg (fasted), 0-4 hr, individual subjects
  M6 to DCDQ Ratios: 71.5 and 60.2 and 161
[2]; 500 mg (fasted), 4-12 hr, Mean ± S.D.
  M6 to DCDQ Ratios: 84.3 ± 58.6
[2]; 500 mg (fasted), 4-12 hr, individual subjects
  M6 to DCDQ Ratios: 149 and 34.6 and 69.4
[2]; 500 mg (fasted), 12-24 hr, Mean ± S.D.
  M6 to DCDQ Ratios: 176 ± 128
[2]; 500 mg (fasted), 12-24 hr, individual subjects
  M6 to DCDQ Ratios: 288 and 36.0 and 203
